Source: PubChem BioAssay (NCI)
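Tested at 5 concentrations; 48 h exposure; 96-well plates; endpoints linearly interpolated, else capped at highest concentration. TGI denotes the concentration required for complete inhibition of growth.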

Experiments:
Assay in all cases: NCI-60 cell line screen, 48 h
A498 renal = tested on: A498 renal
EKVX NSCLC = tested on: EKVX NSCLC
HL-60(TB) leukemia = tested on: HL-60(TB) leukemia
LOX IMVI melanoma = tested on: LOX IMVI melanoma
M14 melanoma = tested on: M14 melanoma
MOLT-4 leukemia = tested on: MOLT-4 leukemia
NCI-H522 lung = tested on: NCI-H522 lung
SF-268 CNS = tested on: SF-268 CNS
SF-295 CNS = tested on: SF-295 CNS
SK-MEL-5 melanoma = tested on: SK-MEL-5 melanoma
SN12C renal = tested on: SN12C renal
SNB-75 CNS = tested on: SNB-75 CNS
TK-10 renal = tested on: TK-10 renal
UACC-257 melanoma = tested on: UACC-257 melanoma
UACC-62 melanoma = tested on: UACC-62 melanoma
DU-145 prostate = tested on: DU-145 prostate
HS 578T breast = tested on: HS 578T breast
NCI/ADR-RES ovarian = tested on: NCI/ADR-RES ovarian
T-47D breast = tested on: T-47D breast
MDA-N = tested on: MDA-N

SMILES | TGI (A498 renal) [µM] | TGI (EKVX NSCLC) [µM] | TGI (HL-60(TB) leukemia) [µM] | TGI (LOX IMVI melanoma) [µM] | TGI (M14 melanoma) [µM] | TGI (MOLT-4 leukemia) [µM] | TGI (NCI-H522 lung) [µM] | TGI (SF-268 CNS) [µM] | TGI (SF-295 CNS) [µM] | TGI (SK-MEL-5 melanoma) [µM] | TGI (SN12C renal) [µM] | TGI (SNB-75 CNS) [µM] | TGI (TK-10 renal) [µM] | TGI (UACC-257 melanoma) [µM] | TGI (UACC-62 melanoma) [µM] | TGI (DU-145 prostate) [µM] | TGI (HS 578T breast) [µM] | TGI (NCI/ADR-RES ovarian) [µM] | TGI (T-47D breast) [µM] | TGI (MDA-N) [µM]
CCN(CC)CCNC(=O)c1ccc([N+](=O)[O-])cc1OC | > 100 | > 100 | > 100 | > 100 | > 100 | > 100 | > 100 | > 100 | > 100 | > 100 | > 100 | > 100 | > 100 | > 100 | > 100 | – | – | – | – | –
CCOc1ccc2ccccc2c1NC1=NCCO1 | 93.8 | > 100 | 49.6 | – | > 100 | 84 | – | > 100 | 65.5 | > 100 | > 100 | > 100 | > 100 | > 100 | > 100 | > 100 | 78.2 | > 100 | > 100 | –
COC(=O)[C@@H]1C=C[C@@H](C#N)n2c(=O)n(-c3ccccc3)c(=O)n21 | > 100 | > 100 | – | 48.4 | > 100 | 67.1 | 32.4 | > 100 | > 100 | > 100 | 95 | 79 | > 100 | > 100 | > 100 | > 100 | > 100 | 68 | 94.1 | –
O=C(O)c1cccc(S(=O)(=O)NN2C(=O)CSC2c2ccccc2)c1 (centres undefined) | > 100 | > 100 | > 100 | > 100 | > 100 | > 100 | > 100 | > 100 | > 100 | > 100 | > 100 | > 100 | > 100 | > 100 | > 100 | > 100 | > 100 | – | > 100 | > 100
CSc1c(C(=O)Nc2ccc(C)cc2)c(N)nn1-c1ccccc1 | 75.1 | > 100 | > 100 | > 100 | > 100 | > 100 | > 100 | > 100 | > 100 | > 100 | > 100 | – | > 100 | > 100 | > 100 | > 100 | > 100 | – | > 100 | > 100
CC12CC3CC/C(=N\O)C(C1)C3(N1CCOCC1)C/C2=N/O (centres undefined) | > 100 | > 100 | > 100 | > 100 | > 100 | > 100 | > 100 | > 100 | > 100 | > 100 | > 100 | 94.8 | – | > 100 | > 100 | > 100 | – | > 100 | > 100 | > 100
CC(O)c1c2c(cc3c1CC1(C3)Cc3cc4c(c(C(C)O)c3C1)CCC4)CCC2 (centres undefined) | 29 | 96.2 | 21.2 | 32.8 | 35.2 | 26.3 | 30 | – | 45.2 | 25.6 | 32 | – | 69.7 | 31.7 | 40.7 | – | 52.8 | 70.4 | 53.7 | –
Cc1c(C(=O)CSc2nc3ccc([N+](=O)[O-])cc3[nH]2)c(=O)n(-c2ccccc2)n1C | > 100 | – | > 100 | > 100 | > 100 | > 100 | > 100 | > 100 | > 100 | > 100 | > 100 | > 100 | > 100 | > 100 | – | – | – | – | – | –
Cc1ccc(S(=O)(=O)N2CCCSCCSCCCSCC2)cc1 | – | > 100 | > 100 | > 100 | > 100 | > 100 | > 100 | > 100 | > 100 | > 100 | > 100 | > 100 | > 100 | > 100 | > 100 | > 100 | – | > 100 | > 100 | –
CC(=O)Nc1ccc(Nc2cc(=O)n(C)c(=O)[nH]2)cc1 | > 100 | > 100 | – | > 100 | > 100 | > 100 | > 100 | > 100 | > 100 | > 100 | > 100 | > 100 | > 100 | > 100 | > 100 | – | > 100 | > 100 | > 100 | > 100
FC(F)(F)P1C2C=CC(CC2)C1(F)F (centres undefined) | > 100 | > 100 | > 100 | > 100 | > 100 | > 100 | > 100 | > 100 | > 100 | > 100 | > 100 | > 100 | > 100 | > 100 | > 100 | – | – | – | – | –
CC1=C2C(=O)O[C@@H](c3ccoc3)[C@]2(C)CCC1=O | > 100 | > 100 | – | > 100 | > 100 | > 100 | – | – | > 100 | > 100 | > 100 | > 100 | – | > 100 | > 100 | > 100 | – | > 100 | > 100 | > 100
O=S(=O)(c1cc(Cl)ccc1Cl)N1CCN(c2ccc(Cl)c(Cl)c2)CC1 | 56.8 | > 100 | > 100 | > 100 | > 100 | > 100 | 56.5 | 85.9 | 50.5 | 51.5 | > 100 | 33.1 | 54 | 92.7 | – | > 100 | > 100 | – | > 100 | –
O=[N+]([O-])c1cccc(N=C2c3ccccc3CN2c2cccc([N+](=O)[O-])c2)c1 | > 100 | > 100 | – | > 100 | > 100 | > 100 | > 100 | > 100 | > 100 | > 100 | > 100 | 73.5 | > 100 | > 100 | > 100 | > 100 | > 100 | – | > 100 | > 100
